Where two headings read alike, the source gives them in different places.
What was measured:
GR [1] = biological target: T1, GR (Rattus norvegicus, UniProt P06536); experiment: AP-1 repression luciferase assay in U2OS cells stably transfected with rat GR; type: cell-based; conditions: Table 5, TPA-stimulated U2OS cells; for EC50: read-out: Repression AP-1 pot (EC50); for Emax: 12 h, read-out: Repression AP-1 % max repression
T1 construct: expressed in transfected cells; gift of Keith Yamamoto
T1 sequence (P06536 1-795): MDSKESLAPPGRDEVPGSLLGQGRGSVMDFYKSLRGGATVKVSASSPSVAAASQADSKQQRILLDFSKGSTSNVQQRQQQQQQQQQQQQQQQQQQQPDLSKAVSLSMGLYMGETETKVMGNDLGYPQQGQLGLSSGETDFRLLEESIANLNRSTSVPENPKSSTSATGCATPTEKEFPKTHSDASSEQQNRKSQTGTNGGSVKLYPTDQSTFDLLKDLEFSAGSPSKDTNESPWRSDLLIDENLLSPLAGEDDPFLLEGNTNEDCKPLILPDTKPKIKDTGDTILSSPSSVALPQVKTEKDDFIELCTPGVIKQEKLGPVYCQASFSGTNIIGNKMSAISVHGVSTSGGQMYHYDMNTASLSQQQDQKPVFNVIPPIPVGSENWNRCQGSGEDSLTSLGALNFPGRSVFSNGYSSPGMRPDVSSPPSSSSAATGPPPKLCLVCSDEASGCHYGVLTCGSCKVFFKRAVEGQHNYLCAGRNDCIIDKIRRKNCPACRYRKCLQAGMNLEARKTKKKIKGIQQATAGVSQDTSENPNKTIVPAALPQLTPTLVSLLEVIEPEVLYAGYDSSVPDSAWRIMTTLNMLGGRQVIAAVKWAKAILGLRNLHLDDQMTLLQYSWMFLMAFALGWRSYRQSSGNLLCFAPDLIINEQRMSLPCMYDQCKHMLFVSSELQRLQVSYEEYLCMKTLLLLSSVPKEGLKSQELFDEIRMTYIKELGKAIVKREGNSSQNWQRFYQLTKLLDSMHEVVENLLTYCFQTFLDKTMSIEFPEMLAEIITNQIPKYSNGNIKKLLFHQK
Experimental: For API repression assays, U2OS cells stably transfected with rat GR were grown in similar media as for CV-1 cells with the exception of the FBS concentration, which was 10% and the only antibiotic was […]. Cells were plated and transfected in a similar fashion, except for plasmids, which in this case were 50 ng/well AP1-Luc and 10 ng/well β-galactosidase. Post-transfection, cells were incubated with either 50 ng/mL TPA (Phorbol 12-myristate 13-acetate), or 50 ng/mL TPA and various hormone dilutions in 10% charcoal treated FBS media. The cells were incubated for 12 h, and the lysis, β-galactosidase assay, and luciferase assay were performed as previously described.

[2] = biological target: T2, glucocorticoid receptor (GR) (Homo sapiens, UniProt P04150); experiment: Glucocorticoid Receptor Competitor Assay Kit (Panvera) ligand binding; conditions: Table 3; relative binding affinity, dexamethasone = 100
T2 construct: purchased Panvera Corp, Madison, Wis
T2 sequence (P04150 1-777): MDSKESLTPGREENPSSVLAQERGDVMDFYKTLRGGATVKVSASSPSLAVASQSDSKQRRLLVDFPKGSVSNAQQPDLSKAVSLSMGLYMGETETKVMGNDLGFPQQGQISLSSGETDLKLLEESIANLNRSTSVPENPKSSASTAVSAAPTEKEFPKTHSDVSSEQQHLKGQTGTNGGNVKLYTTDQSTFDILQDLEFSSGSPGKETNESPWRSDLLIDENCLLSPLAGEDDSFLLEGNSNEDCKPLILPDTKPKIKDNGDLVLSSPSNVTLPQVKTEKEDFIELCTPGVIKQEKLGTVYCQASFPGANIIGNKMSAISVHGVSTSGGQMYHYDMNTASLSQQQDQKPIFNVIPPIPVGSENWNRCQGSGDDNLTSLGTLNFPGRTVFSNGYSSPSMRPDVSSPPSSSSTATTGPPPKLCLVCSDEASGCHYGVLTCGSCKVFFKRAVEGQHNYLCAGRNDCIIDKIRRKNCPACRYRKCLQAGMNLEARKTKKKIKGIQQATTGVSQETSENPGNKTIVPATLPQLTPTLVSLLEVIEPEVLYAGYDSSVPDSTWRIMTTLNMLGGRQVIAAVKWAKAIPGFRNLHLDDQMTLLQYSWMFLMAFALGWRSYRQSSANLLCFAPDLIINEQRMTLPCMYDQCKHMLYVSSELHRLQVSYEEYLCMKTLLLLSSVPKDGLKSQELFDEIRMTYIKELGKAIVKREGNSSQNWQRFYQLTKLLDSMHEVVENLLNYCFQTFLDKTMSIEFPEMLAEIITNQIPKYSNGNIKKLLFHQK
Text: The Glucocorticoid Receptor Competitor Assay Kit (Panvera Corp, Madison, Wis.) was used for ligand binding studies. The recommended room temperature protocol was followed for all assayed ligands.

MR = biological target: T3, MR (Homo sapiens, UniProt P08235); experiment: MR activation (max fold activation); type: cell-based; conditions: Table 4
T3 sequence (P08235 1-984): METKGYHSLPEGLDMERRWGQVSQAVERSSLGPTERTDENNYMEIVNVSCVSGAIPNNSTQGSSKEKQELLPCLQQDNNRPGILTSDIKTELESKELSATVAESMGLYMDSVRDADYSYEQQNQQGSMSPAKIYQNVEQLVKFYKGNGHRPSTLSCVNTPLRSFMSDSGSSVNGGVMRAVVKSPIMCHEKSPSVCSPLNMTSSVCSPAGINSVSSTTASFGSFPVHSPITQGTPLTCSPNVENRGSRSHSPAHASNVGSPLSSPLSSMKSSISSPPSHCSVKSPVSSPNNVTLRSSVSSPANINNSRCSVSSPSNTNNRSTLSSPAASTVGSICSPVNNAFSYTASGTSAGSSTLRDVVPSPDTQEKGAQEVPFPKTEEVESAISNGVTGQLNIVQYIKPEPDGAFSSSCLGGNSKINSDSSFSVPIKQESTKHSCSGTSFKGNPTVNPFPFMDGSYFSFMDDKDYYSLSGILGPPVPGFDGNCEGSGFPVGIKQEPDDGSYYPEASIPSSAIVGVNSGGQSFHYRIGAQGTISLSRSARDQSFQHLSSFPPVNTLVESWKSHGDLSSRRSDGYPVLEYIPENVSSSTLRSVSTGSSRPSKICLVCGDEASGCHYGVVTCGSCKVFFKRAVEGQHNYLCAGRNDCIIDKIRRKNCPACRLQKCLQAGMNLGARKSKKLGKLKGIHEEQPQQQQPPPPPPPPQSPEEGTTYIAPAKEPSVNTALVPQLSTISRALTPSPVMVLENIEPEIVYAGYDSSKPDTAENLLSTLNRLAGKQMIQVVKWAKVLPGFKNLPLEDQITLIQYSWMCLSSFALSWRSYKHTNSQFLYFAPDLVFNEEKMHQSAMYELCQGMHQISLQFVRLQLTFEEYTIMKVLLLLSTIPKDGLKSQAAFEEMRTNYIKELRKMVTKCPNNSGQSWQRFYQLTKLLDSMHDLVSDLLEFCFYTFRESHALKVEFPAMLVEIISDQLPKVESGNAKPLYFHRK

GR [3] = biological target: T4, GR (Homo sapiens, UniProt P04150); experiment: GRE (TAT3-Luc) activation luciferase assay in CV-1 cells transfected with GR; type: cell-based; conditions: Table 4; for EC50: read-out: GR pot (EC50)
T4 construct: expressed in transfected cells; host or cells: CV-1 cells, transient transfection (plasmid a gift of Keith Yamamoto, UCSF)
T4 sequence (P04150 1-777): T2 sequence (P04150 1-777)
Experimental: Cells were plated into tissue culture treated, 96 well flat bottom plates (25,000 cells/well), and incubated for 12 h at 37° C. Cells were then transfected using the Lipofectamine PLUS transfection reagent (Gibco BRL). DNA-lipid complexes of 5 ng GR, 50 ng TAT3-Luc, 7.5 ng β-galactosidase, 1 μL-well PLUS reagent and 0.67 μL-well lipofectamine in 50 μL/well serum free media were added to cells and incubated for 4 h at 37° C. Complexes were removed and hormones diluted in 5% charcoal-stripped FBS were added to the cells, which were then incubated for 24 hours at 37° C. Media was removed and the cells were washed with 100 μL Ca^+2, Mg^+2 free phosphate buffered saline (PBS). Lysis was achieved by adding 50 μL of Passive Lysis Buffer (Promega Corp, Madison, Wis.) and shaking the plate for 15 min. 15 μL of this lysate was then used to assay β-galactosidase activity (β-galactosidase enzyme assay system, Promega Corp., recommended procedures followed). The Luciferase Assay System (Promega Corp.) was used to assay luciferase activity. 100 μL of luciferase assay reagent was added rapidly to the plate and luminescence was measured for 10 ms/well on an Analyst AD Detection System (LJL Biosystems, Sunnyvale, Calif.).

Coll A = Coll A repression; type: cell-based; conditions: for Emax: read-out: Repression Coll A % max repression; for EC50: read-out: Repression Coll A pot (EC50)
NF-κB = NF-κB repression luciferase assay in A549 cells; type: cell-based, human; conditions: Table 5, TNF-α-stimulated A549 cells; for EC50: Homo sapiens, read-out: Repression NF-KB pot (EC50)
Text: Plasmids for GR (human, pSG5 backbone), AP1-Luc (synthetic AP1 response element upstream of a firefly luciferase gene), TAT3-Luc (three copies of the tyrosine aminotransferase glucocorticoid response element upstream of a firefly luciferase gene), β-galactosidase (used as a transfection control), as well as two stable transfected cells lines: an A549 (human, lung carcinoma) cell line stably transfected with a κB response element upstream of a firefly luciferase gene, (R. M. Nissen et al., Genes Dev., 14(18):2314-29, (2000)) and a U2OS (human, osteosarcoma) stably transfected with rat GR (I. Rogatsky, et al., Mol. Cell. Biol., 1997, 17, 3181-3193) were a gift of Professor Keith Yamamoto (Department of Biochemistry, University of California, San Francisco).
For NF-κB repression assays, A549 cells stably transfected with a luciferase reporter were grown under the same conditions as CV-1 cells. 50,000 cells/well were plated into 96 well plates and incubated for 12 h at 37° C. Either TNF-α alone or mixed with various hormone dilutions in media were then added to the cells, which were then incubated for 8 hours. Procedures for lysis and luciferase assay were performed as previously described. Protein content was used as a control in this case and the recommended procedures using the BCA Protein Assay Kit (Roche) were followed.

EC50 (GR [1]) [nM]	Emax (GR [1]; U2OS) [%]	GR binding RBA (dex = 100) [2]	MR max fold activation (MR)	GRE activation max fold activation (GR [3])	EC50 (GR [3]) [nM]	EC50 (Coll A; Table 5) [nM]	EC50 (NF-κB) [nM]	Emax (GR [1]) [%]	EC50 (Coll A; Table 2) [nM]	SMILES	Emax (Coll A; Table 5) [%]	Repression NF-KB % max repression (NF-κB) [%]	Emax (Coll A; Table 2) [%]	Repression Coll A % max repression (Coll A; Table 5) [%]
5.3	74	93	2.0 ± 0.7	21	313					CC12Cc3cnn(-c4ccc(F)cc4)c3C=C1CCCC2C(O)c1csc2ccccc12 (centres unmarked) [Compound 221, 3a,7a-(Dihydro-benzo[b]thiophen-3-yl)-[1-(4-fluoro-phenyl)-4a-methyl-4,4a,5,6,7,8-hexahydro-1H-benzo[f]indazol-5-yl]-methanol]				
12.8	68	36	2.9 ± 0.5	69 ± 25	330 ± 92	28				CC12Cc3cnn(-c4ccc(F)cc4)c3C=C1CCCC2C(O)c1ccc(O)cc1 (centres unmarked) [Compound 231, 4-{[1-(4-Fluoro-phenyl)-4a-methyl-4,4a,5,6,7,8-hexahydro-1H-benzo[f]indazol-5-yl]-hydroxy-methyl}-phenol]	70			
						2.1	8.4			C[C@]12CCC(=O)C=C1CC[C@@H]1[C@@H]2[C@@H](O)C[C@@]2(C)[C@H]1CC[C@]2(O)C(=O)CO [Cortisol, cortisol]		83		
							1.5	89	0.36	C[C@@H]1C[C@H]2[C@@H]3CCC4=CC(=O)C=C[C@]4(C)[C@@]3(F)[C@@H](O)C[C@]2(C)[C@@]1(O)C(=O)CO [Dexamethasone, dexamethasone, reference compound]		87	84	84
16.6	77	52	3.1 ± 1.0	55 ± 2	110 ± 7					CC12Cc3cnn(-c4ccc(F)cc4)c3C=C1CCCC2C(O)c1cccc(O)c1 (centres unmarked) [Compound 229, 3-{[1-(4-Fluoro-phenyl)-4a-methyl-4,4a,5,6,7,8-hexahydro-1H-benzo[f]indazol-5-yl]-hydroxy-methyl}-phenol]				
